From ChEMBL document CHEMBL1126764, “Bicyclic thiazolidine lactam peptidomimetics of the dopamine receptor modulating peptide Pro-Leu-Gly-NH2” (J Med Chem, 1993)

Molecular target: Dopamine receptor (Bos taurus) (UniProt Q95136+P20288)
Assay: Ability to enhance the binding of [3H]- ADTN to dopamine receptor from freshly dissected bovine caudate
Assay type: protein assay

SMILES	Enhancement
NC(=O)[C@H]1CS[C@@H]2CC[C@@H](NC(=O)C3CCCN3)C(=O)N12 (some centres not stated)	75%
NC(=O)[C@H]1CS[C@@H]2C[C@@H](NC(=O)C3CCCN3)C(=O)N12 (some centres not stated)	200%
